Source: patent US20220176011A1, “SCAR REDUCING WOUND CLOSURE MATERIALS” (Lankenau Institute for Medical Research, priority 2019, published 2022)

Tested on: HIF1a protein activity
Assay: In vitro drug release from suture into DMEM medium, read out by HIF1a luciferase assay
Type: cell-based
Procedure: FIG. 1 is a graph plotting drug release in vitro from poly(lactic acid)/poly(lactic-co-glycolic acid (PLA/PLGA) sutures over time. Briefly, a mixture of PLA and PLA/GPLA suture was infused with 1,4-DPCA molecules during generation of the sutures. The concentration of DPCA was in all cases 5 mg/100 mg suture material as described below. The sutures, having different ratios of PLA and PLA/PLGA as described below, were tested for rate of drug release. Drug release was measured by HIF levels. The sutures were soaked in medium without serum for 24 hours and transferred to new medium for each timepoint identified on the graph. The medium was tested for HIF1a protein activity in a luciferase assay. The horizontal lines are controls as noted: at about 10000 luminescence units (LU) is a control for DMEM only; at about 18000 LU is a control for 25 μM DCPA; at about 29500 LU is a control for 50 μM DCPA; at about 39000 LU is a control for 100 μM DCPA; and at about 40500 LU is a control for 200 μM DCPA. The curve that is substantially at 10000 LU but dips below at day 12 represents a mixture of PLA and PLA/PLGA [50:50] at a ratio of 75 PLA:25 PLA/PLGA. The curve that starts below 10000 LU and increases to about 15000 LU at day 14.5 is PLA and PLA/PLGA [50:50] at a ratio of 75:25+DPCA. The curve that starts above 50000 and has a peak at day 15 above 40000 LU is PLA and PLA/PLGA[50:50] at a ratio of 50:50+DPCA. The curve that starts above 50000 LU and has a peak at day 7.5 at about 34000 LU represents PLA and PLA/PLGA [50:50] at a ratio of 75:25+DPCA.
A PLA/PGLA suture, infused with 1,4-DPCA molecules during generation of the sutures as described in Example 1 (i.e., materials are melted, DPCA added, and the final mixture cooled and pulled into sutures), was tested for rate of release of 1,4-DPCA into DMEM medium. Drug release was measured by HIF levels. The sutures were soaked in medium without serum for 24 hours and transferred to new medium for each timepoint (1 hour, 3 hours, Days 1, 2, 3, 6, 7, 8, 9, 10, 13, 14, 15, 16, 17 and 20). The medium was tested for HIF1a protein activity in a luciferase assay (Signosis, Inc) as described in ESKLA, K-L et al, Hypothermia augments stress response in mammalian cells. Free Radical Biology and Medicine, 2018 doi:10.1016/j.freeradbiomed.2018.04.571.
The results are shown in the graph at FIG. 1. The two heavy lines represented PLA/PLGA[50:50] 50:50+DPCA and PLA/PLGA[50:50] 75:25+DPCA are shown releasing the drug after one hour in the medium up to about 15 days in the medium after which the drug detection falls under the DMEM control.

Compound: O=C(O)c1c[nH]c2c(ccc3cccnc32)c1=O [DCPA, 1,4-dihydrophenonthrolin-4-one-3-carboxylic acid]
- luminescence (HIF1a luciferase assay), control line (25 μM free drug control): about 18000 LU
- luminescence (HIF1a luciferase assay), control line (50 μM free drug control): about 29500 LU
- luminescence (HIF1a luciferase assay), control line (100 μM free drug control): about 39000 LU
- luminescence (HIF1a luciferase assay), control line (200 μM free drug control): about 40500 LU
